Assay results as given in US20170143674A1, “Use of Glutaryl Histamine for the Treatment of Respiratory Tract Diseases” (LTD "VALENTA-INTELLEKT", priority 2011, published 2017).
Marks after values point to notes of the source that are not given here.

Assays:
[1] = tested on: Staphylococcus aureus (mouse-adapted strain 10); experiment: animal or person; format: in vivo, mice; settings: for Mortality rate (%) / Survival rate (%): tenth day
Method: The tested medicament was glutaryl histamine in doses of 15, 30 and 45 mg/kg. Solutions of the tested medicament for oral administration were prepared ex tempore. Ampicillin (in intravenous administration) was used as a therapeutic preparation since this substance was the most experimentally studied antibiotic approved in clinical practice many years ago.
Staphylococcus aureus (mouse-adapted strain 10) was used as an infectious agent. Mice were infected intravenously.
Firstly, there was determined a lethal dose (LD100) of staphylococcus when intravenously administered to this line of mice with a certain weight. Fatal cases among mice were registered every day for ten days. The lethal dose was 3×10^8 CFU/mouse. […] For this purpose, mice were housed into cages (10 animals per cage) and infected with a lethal dose of staphylococcus. One hour later, each mouse was intravenously administered ampicillin in doses of 10, 20, 30, 40, and 50 mg/kg. A group of mice infected with a lethal dose of staphylococcus without the treatment was considered as a control group. Fatal cases among mice were registered every day for ten days.
The next step of the experiment was to study an effect of combined administration of glutaryl histamine with ampicillin on a model of staphylococcal sepsis in mice.
In the experiment, mice were housed in following groups (10 animals per cage):
Glutaryl histamine was administered orally in the corresponding doses to mice of groups 3, 4, 5, 6, 7, and 8 for 5 days. Five day after, all groups of mice were intravenously administered 0.2 ml of Staphylococcus aureus in the lethal dose. One hour after infection, mice of groups 2, 6, 7 and 8 were […] administered 0.2 ml of ampicillin in a dose of 20 mg/kg. After infection and administration of ampicillin, mice of groups 3-8 were administered glutaryl histamine for additional 5 days. During the experiment, the animals were observed every day, and fatal cases were registered.

LPS-induced tonsillitis = LPS-induced tonsillitis model (E. coli LPS into cervical lymph node); format: in vivo; settings: for Area of germinal centers of lymphoid follicles in affected lymph nodes / TP (blood total protein) / Weight difference between affected and intact lymph nodes: M ± m
Method: This example is aimed at evaluating the activity of glutaryl histamine on experimental model of tonsillitis. LPS-induced tonsillitis is one of the most adequate models for the study of the pathogenesis, pathomorphological changes and action of pharmacological medicaments on the course of this disease.
Tonsillitis was induced under anesthesia by administration of a solution of E. coli lipopolysaccharide (LPS) (Sigma) in normal physiological solution in a dose of 20 μg/kg, by 10 μl to the right upper lymph node (Inn. Cervicales superficiales). After administration, the lymph nodes were put under superficial neck muscles and then the skin was stitched. The wound was treated with streptocide. The animal was placed into a post-operation cage.
The tested medicament was administered once daily in a given dose strictly at the stated time for three days before the induction of tonsillitis and 10 days after. Normal saline solution was used as placebo.
Immediately after euthanasia, the animals were subjected to necropsy, the affected and intact lymph nodes were removed and weighed.
The lymph nodes derived from the half of animals from each group were being frozen after removal in a refrigerating chamber at −25° C. for 72 hours. Then the lymph nodes were lyophilized.
In a half of animals from each group (7), the affected lymph nodes were subjected to histological analysis. After euthanasia, intact and affected lymph nodes were removed from each animal. […] Sections with a thickness of 4 to 6 μm were prepared from the paraffin blocks, stained with hematoxylin and eosin to reveal typical pathological processes and study required parameters using light-optical microscope Leica DM LS (magnification 200× and 400×).
Weights of intact and affected lymph nodes were compared and the nodes also were lyophilized to evaluate an effect of the medicaments on the swelling degree and adequacy of the model of tonsillitis.
The protein-synthetic function of the liver and a systemic effect of the medicaments on organism were evaluated in total protein (TP) analysis.

[2] = tested on: acute respiratory distress syndrome (ARDS); experiment: ARDS model, single intravenous LPS 7.5 mg/kg; format: in vivo, rat; settings: for Me (%) (mortality rate): 8 days; for Died: total number 10
Method: Since an intravenous administration of lipopolysaccharide (LPS) to animals is one of the most acceptable models for studying the pathogenesis, pathomorphological changes and consequences of acute respiratory distress syndrome, this model was used in this example. Tested medicament glutaryl histamine was administered for 9 days after the first administration of LPS, i.e. glutaryl histamine was administered for 12 days in total (3 days before the induction of ARDS and 9 days during and after the induction). The exception was dexamethasone since, according to the literature data and the information leaflet, long-time administration of steroidal anti-inflammatory agents can cause severe side effects. For this reason, dexamethasone was administered according to the following schedule: 49, 24 and 1 hour before the induction of ARDS in a dose of 5 mg/kg, for 3 days after the first injection of LPS in the same dose; the medicament was withdrawn by a gradual dose reduction for 3 days. Thus, dexamethasone was administered 9 times.
The mortality rate among the animals administered LPS in an intravenous dose of 7.5 mg/kg was 70% for 8 days. The most of them (60%) died on the first day, in particular, from 4 to 12-16 hours after the injection of LPS. The mortality rate among the animals administered glutaryl histamine was different from the rate in animals treated with dexamethasone; however, most of them also died on the first day, about in the same time period (Table 11).

CC1(C)S[C@@H]2[C@H](NC(=O)[C@H](N)c3ccccc3)C(=O)N2[C@H]1C(=O)O [ampicillin]
ED50 ([1]; Staphylococcus aureus, iv, read-out: ED50 (50% effective dose)): 17.3 mg/kg
Mortality rate (%) ([1]; ampicillin 20 mg/kg): 50%
Survival rate (%) ([1]; ampicillin 20 mg/kg): 50%
died/survived animals ([1]; day 1, ampicillin 20 mg/kg): 0/10
died/survived animals ([1]; day 2, ampicillin 20 mg/kg): 0/10
died/survived animals ([1]; day 3, ampicillin 20 mg/kg): 0/10
died/survived animals ([1]; day 4, ampicillin 20 mg/kg): 1/9
died/survived animals ([1]; day 5, ampicillin 20 mg/kg): 2/8
died/survived animals ([1]; day 6, ampicillin 20 mg/kg): 3/7
died/survived animals ([1]; day 7, ampicillin 20 mg/kg): 4/6
died/survived animals ([1]; day 8, ampicillin 20 mg/kg): 4/6
died/survived animals ([1]; day 9, ampicillin 20 mg/kg): 5/5
died/survived animals ([1]; day 10, ampicillin 20 mg/kg): 5/5

O=C(O)CCCC(=O)NCCc1c[nH]cn1 [glutaryl histamine]
Mortality rate (%) (LPS-induced tonsillitis; Glutaryl histamine 9 mg/kg): 0%
The number of died animals/initial number of animals in a group (LPS-induced tonsillitis; Glutaryl histamine 9 mg/kg): 0/14
Area of germinal centers of lymphoid follicles in affected lymph nodes (LPS-induced tonsillitis; Glutaryl histamine 9 mg/kg): 0.067 ± 0.006* mm^2
TP (blood total protein) (LPS-induced tonsillitis; Glutaryl histamine 9 mg/kg): 67.2 ± 1.1 g/L
Weight difference between affected and intact lymph nodes (LPS-induced tonsillitis; Glutaryl histamine 9 mg/kg): 13.0 ± 1.3 mg
Mortality rate (%) (LPS-induced tonsillitis; Glutaryl histamine 27 mg/kg): 0%
The number of died animals/initial number of animals in a group (LPS-induced tonsillitis; Glutaryl histamine 27 mg/kg): 0/14
Area of germinal centers of lymphoid follicles in affected lymph nodes (LPS-induced tonsillitis; Glutaryl histamine 27 mg/kg): 0.048 ± 0.003** mm^2
TP (blood total protein) (LPS-induced tonsillitis; Glutaryl histamine 27 mg/kg): 65.0 ± 0.6* ** g/l
Weight difference between affected and intact lymph nodes (LPS-induced tonsillitis; Glutaryl histamine 27 mg/kg): 8.8 ± 1.1* ** mg
Area of germinal centers of lymphoid follicles in affected lymph nodes (LPS-induced tonsillitis; Glutaryl histamine 45 mg/kg): 0.066 ± 0.007* mm^2
TP (blood total protein) (LPS-induced tonsillitis; Glutaryl histamine 45 mg/kg): 65.1 ± 0.8* ** g/l
IP (%) (protective index) ([2]; Glutaryl histamine 0.5 mg/kg): 57.1%
S (%) (survival rate) ([2]; Glutaryl histamine 0.5 mg/kg): 70%
Me (%) (mortality rate) ([2]; Glutaryl histamine 0.5 mg/kg): 30%
Died ([2]; Glutaryl histamine 0.5 mg/kg): 3
IP (%) (protective index) ([2]; Glutaryl histamine 3 mg/kg): 28.6%
S (%) (survival rate) ([2]; Glutaryl histamine 3 mg/kg): 50%
Me (%) (mortality rate) ([2]; Glutaryl histamine 3 mg/kg): 50%
Died ([2]; Glutaryl histamine 3 mg/kg): 5
IP (%) (protective index) ([2]; Glutaryl histamine 9 mg/kg): 42.9%
S (%) (survival rate) ([2]; Glutaryl histamine 9 mg/kg): 60%
Me (%) (mortality rate) ([2]; Glutaryl histamine 9 mg/kg): 40%
Died ([2]; Glutaryl histamine 9 mg/kg): 4
IP (%) (protective index) ([2]; Glutaryl histamine 18 mg/kg): 28.6%
S (%) (survival rate) ([2]; Glutaryl histamine 18 mg/kg): 50%
Me (%) (mortality rate) ([2]; Glutaryl histamine 18 mg/kg): 50%
Died ([2]; Glutaryl histamine 18 mg/kg): 5
IP (%) (protective index) ([2]; Glutaryl histamine 27 mg/kg): 71.4%
S (%) (survival rate) ([2]; Glutaryl histamine 27 mg/kg): 80%
Me (%) (mortality rate) ([2]; Glutaryl histamine 27 mg/kg): 20%
Died ([2]; Glutaryl histamine 27 mg/kg): 2
IP (%) (protective index) ([2]; Glutaryl histamine 45 mg/kg): 28.6%
S (%) (survival rate) ([2]; Glutaryl histamine 45 mg/kg): 50%
Me (%) (mortality rate) ([2]; Glutaryl histamine 45 mg/kg): 50%
Died ([2]; Glutaryl histamine 45 mg/kg): 5
died/survived animals ([1]; day 1, glutaryl histamine 15 mg/kg): 0/10
died/survived animals ([1]; day 1, glutaryl histamine 30 mg/kg): 0/10
died/survived animals ([1]; day 1, glutaryl histamine 45 mg/kg): 0/10
died/survived animals ([1]; day 2, glutaryl histamine 15 mg/kg): 0/10
died/survived animals ([1]; day 2, glutaryl histamine 30 mg/kg): 0/10
died/survived animals ([1]; day 2, glutaryl histamine 45 mg/kg): 0/10
died/survived animals ([1]; day 3, glutaryl histamine 15 mg/kg): 0/10
died/survived animals ([1]; day 3, glutaryl histamine 30 mg/kg): 0/10
died/survived animals ([1]; day 3, glutaryl histamine 45 mg/kg): 1/9
died/survived animals ([1]; day 4, glutaryl histamine 15 mg/kg): 1/9
died/survived animals ([1]; day 4, glutaryl histamine 30 mg/kg): 1/9
died/survived animals ([1]; day 4, glutaryl histamine 45 mg/kg): 1/9
died/survived animals ([1]; day 5, glutaryl histamine 15 mg/kg): 2/8
died/survived animals ([1]; day 5, glutaryl histamine 30 mg/kg): 2/8
died/survived animals ([1]; day 5, glutaryl histamine 45 mg/kg): 3/7
died/survived animals ([1]; day 6, glutaryl histamine 15 mg/kg): 4/6
died/survived animals ([1]; day 6, glutaryl histamine 30 mg/kg): 3/7
died/survived animals ([1]; day 6, glutaryl histamine 45 mg/kg): 4/6
died/survived animals ([1]; day 7, glutaryl histamine 15 mg/kg): 5/5
died/survived animals ([1]; day 7, glutaryl histamine 30 mg/kg): 4/6
died/survived animals ([1]; day 7, glutaryl histamine 45 mg/kg): 5/5
died/survived animals ([1]; day 8, glutaryl histamine 15 mg/kg): 6/4
died/survived animals ([1]; day 8, glutaryl histamine 30 mg/kg): 6/4
died/survived animals ([1]; day 8, glutaryl histamine 45 mg/kg): 6/4
died/survived animals ([1]; day 9, glutaryl histamine 15 mg/kg): 6/4
died/survived animals ([1]; day 9, glutaryl histamine 30 mg/kg): 7/3
died/survived animals ([1]; day 9, glutaryl histamine 45 mg/kg): 7/3
died/survived animals ([1]; day 10, glutaryl histamine 15 mg/kg): 7/3
died/survived animals ([1]; day 10, glutaryl histamine 30 mg/kg): 7/3
died/survived animals ([1]; day 10, glutaryl histamine 45 mg/kg): 8/2
Mortality rate (%) ([1]; glutaryl histamine 15 mg/kg): 70%
Survival rate (%) ([1]; glutaryl histamine 15 mg/kg): 30%
Mortality rate (%) ([1]; glutaryl histamine 30 mg/kg): 70%
Survival rate (%) ([1]; glutaryl histamine 30 mg/kg): 30%
Mortality rate (%) ([1]; glutaryl histamine 45 mg/kg): 80%
Survival rate (%) ([1]; glutaryl histamine 45 mg/kg): 20%
